Results on 18 molecules are retold here after paper PMC6940897, “Less Cytotoxic Protoflavones as Antiviral Agents: Protoapigenone 1′-O-isopropyl ether Shows Improved Selectivity Against the Epstein–Barr Virus Lytic Cycle” (International Journal of Molecular Sciences, 2019).

Data set [1] can be described thus: MTT cytotoxicity on the HIV host cells. The format is cell-based. Conditions: human, U373-CD4-CCR5 cells, MTT, 48 h, n=2; tested up to 100 µM (compound 9 up to 500 µM); read-out: Cytotoxic IC50 ± SEM. The procedure: (§1) The U373-CD4-CCR5 cell line was obtained from the AIDS Research and Reagent Program, NIAID. Cells were cultured according to the protocol of the provider with 10% heat-inactivated fetal bovine serum (Lonza, Maastricht, The Netherlands) supplemented with 2 mM L-glutamine, 100 units/mL of penicillin, and 100 µg/mL streptomycin (Invitrogen, Merelbeke, Belgium). Pseudotyped viral particules bearing the ADA HIV Env were produced, as described previously.
(§2) Antiviral activity was assessed while using a Pseudotype Virus Assay, allowing for one cycle of viral replication. The U373-CD4-CCR5 cells were infected by pseudotyped virus pNL4.3ΔenvLuc-ADA 8 using spinoculation at 1200 g during 2 h in the presence of compounds and cultured for two consecutive days in the presence of the compounds. After 48 h, luciferase activity expressed as Relative Light Units was measured (Luciferase System kit, Promega, The Netherlands). Drug cytotoxicity was evaluated while using MTT (3-(4,5-dimethylthiazol-2-yl)-2,5-diphenyltetrazolium bromide, Sigma, Belgium) 48 h after incubation with the compounds by measuring A540 and A690 using a POLARstar Omega Plate Reader (BMG Lab Technologies, Belgium) after 48 h of incubation with the compounds. The value of OD540–OD690 was calculated.

Data set [2] deals with HIV-1. Briefly: HIV-1 pseudotype virus assay (one cycle of viral replication, luciferase readout). It counts as cell-based. The protocol: Compounds 2, 6–14, and 21–28 were tested against HIV-1 while using a pseudotype virus assay allowing only one cycle of viral replication and being more sensitive for compounds targeting the early steps of HIV replication, such as reverse transcription and integration. […] While this represents a rather weak activity, it might still be of interest, since this compound was not cytotoxic on the host cells at as high as 500 µM concentration.
The U373-CD4-CCR5 cell line was obtained from the AIDS Research and Reagent Program, NIAID. Cells were cultured according to the protocol of the provider with 10% heat-inactivated fetal bovine serum (Lonza, Maastricht, The Netherlands) supplemented with 2 mM L-glutamine, 100 units/mL of penicillin, and 100 µg/mL streptomycin (Invitrogen, Merelbeke, Belgium). […]
Antiviral activity was assessed while using a Pseudotype Virus Assay, allowing for one cycle of viral replication. […] After 48 h, luciferase activity expressed as Relative Light Units was measured (Luciferase System kit, Promega, The Netherlands). Drug cytotoxicity was evaluated while using MTT (3-(4,5-dimethylthiazol-2-yl)-2,5-diphenyltetrazolium bromide, Sigma, Belgium) 48 h after incubation with the compounds by measuring A540 and A690 using a POLARstar Omega Plate Reader (BMG Lab Technologies, Belgium) after 48 h of incubation with the compounds. The value of OD540–OD690 was calculated.

For data set [3], the system named is U373-CD4-CCR5 cells. Briefly: MTT cytotoxicity on the HIV host cells. The format is cell-based. Conditions: for IC50: U373-CD4-CCR5 cells, MTT, 48 h, n=2, tested up to 100 µM (compound 9 up to 500 µM), read-out: Cytotoxic IC50 ± SEM. The protocol:
as §1, §2

Data set [4] concerns EBV lytic cycle (expression of EBV Rta). Put plainly: Inhibition of EBV lytic cycle: immunoblot of Rta expression in P3HR1 cells after lytic induction. It counts as cell-based, Epstein–Barr Virus. Conditions: for inhibition of EBV lytic cycle, first screening (in words): 0.25 µM, sodium butyrate + TPA, 24 h; for concentration causing a marked reduction in the Rta levels: 24 h after lytic induction; for concentration causing a marked reduction in the Rta levels / IC50: immunoblot; for IC50: human gammaherpesvirus 4, P3HR-1, 24 h after lytic induction with SB and TPA; for selectivity ratio at 24 h: human, cytotoxic IC50 (P3HR1) / anti-EBV Rta IC50, read-out: Selectivity of the anti-EBV vs. cytotoxic effect (ratio of the corresponding IC50 values). The procedure:
Compounds 2 and 6–28 were tested for their activity on the EBV lytic cycle. To assess this, the P3HR1 cells were treated with sodium butyrate and TPA for 24 h. As expected, lytic protein Rta was expressed after lytic induction. As a first screening, the cells were treated with protoapigenone (2), used as a positive control, or compounds 6–28 at the induction of lytic cycle for 24 h.
(§3) EBV-positive BL cell line P3HR1 cells were cultured in RPMI 1640 medium. Culture media were supplemented with 10% fetal calf serum. P3HR1 cells were treated with 3 mM sodium butyrate and 30 nM 12-O-tetradecanoylphobol-13-actetae (TPA) to induce the EBV lytic cycle.
P3HR1 cells were lysed in mRIPA buffer (50 mM Tris-HCl, pH 7.8, 150 mM NaCl, 5 mM EDTA, 0.5% Triton X-100, 0.5% NP-40). Approximately 5% of the lysate was loaded to a gel and then separated by electrophoresis in 10% SDS-PAGE. The proteins in the gel were electroblotted onto a polyvinylidene difluoride (PVDF) blotting membrane while using a Hoefer transfer system. Rta was detected while using mouse anti-Rta monoclonal antibody (Argene, Verniolle, France). α-Tubulin was detected using mouse anti-α-tubulin monoclonal antibody (Abcam, Cambridge, UK). Primary antibodies were detected using horseradish peroxidase-conjugated secondary antibodies (Cell Signaling Technology, Danvers, MA, USA) and then visualized using SuperSignal West Pico Chemiluminescent substrate (Thermo Fisher Scientific, Waltham, MA, USA).
A general note: A western blot detects proteins with antibodies after separation by electrophoresis.

The nature of data set [5]: MTT cytotoxicity assay on P3HR1 cells. It counts as cell-based. Conditions: human, 24 h. The procedure:
as §3
(§4) P3HR1 cells (5 × 10^4) were seeded in wells of a 96-well plate and then cultured for 24 h in 100 µL of RPMI 1640 medium containing protoapigenone or its analogs. Subsequently, 1% Triton X-100 was added as a […] control. Cytotoxicity was determined by Cell Proliferation Kit I (Roche, Basel, Switzerland). An aliquot of 10 µL of the MTT labeling reagent was added to each well and the plate was incubated for 4 h at 37°C. Afterwards, 100 µL solubilization solution was added to each well to dissolve insoluble formazan and was incubated overnight. Optical density was measured at 595 nm and 650 nm.
For orientation: Formazan colour is commonly taken as a measure of viable cells.

In data set [6] the test system is P3HR1 cells. Briefly: MTT cytotoxicity assay on P3HR1 cells. It counts as cell-based. The protocol: as §3, §4
Data set [7] relates to EBV lytic cycle (expression of EBV Rta). Further details: method as in PMID 21490247. Conditions: 0.25 µM; cited from earlier work.

“Also recorded” adds a separate entry of the source.

The IC50 is the concentration at which inhibition is half-maximal. Turning to `CCCCOC1(c2cc(=O)c3c(O)cc(O)cc3o2)CCC(=NO)CC1` (stereo not shown) [Compound 28], the IC50 at 48 h in data set [1] was found to be 27 ± 8.4 µM.

In the case of `C#CCOC1(c2cc(=O)c3c(O)cc(O)cc3o2)C=CC(=NO)CC1OC` (stereo not shown) [Compound 23], the IC50 at 48 h in data set [1] is roughly 89.5 µM.

Consider `CC(C)OC1(c2cc(=O)c3c(O)cc(O)cc3o2)CCC(=O)CC1` [Compound 13], for which, in data set [1], the IC50 at 48 h was greater than 100 µM.

As to `COC1(c2cc(=O)c3c(O)cc(O)cc3o2)CCC(=O)CC1` [Compound 10], in data set [1], the IC50 at 48 h was greater than 100 µM.

By inhibition is commonly meant the relative decrease from the control value, in per cent. On to `O=C1CCC(O)(c2cc(=O)c3c(O)cc(O)cc3o2)CC1` [Compound 9, Tetrahydroprotoapigenone], for which the inhibition at 100 µM in data set [2] (Human immunodeficiency virus 1, 48 h, read-out: inhibition of viral infection) is roughly 50%. Also, in data set [2] (pseudotype virus assay, 100 µM where stated), the “antiretroviral activity against HIV-1 (in words)” value is “inhibits HIV-1 infection; also recorded: weak antiretroviral activity”. Also, the “cytotoxicity on the host cells (in words)” value in data set [3] (at as high as 500 µM) is “not cytotoxic”. Further, in data set [1], the half-maximal inhibitory concentration (IC50) at 48 h was greater than 500 µM.

For the molecule `CC(C)OC1(c2cc(=O)c3c(O)cc(O)cc3o2)C=CC(=O)C=C1` [Compound 6, protoapigenone 1′-O-isopropyl ether], in data set [4], the “inhibition of EBV lytic cycle, first screening (in words)” value (“inhibition of EBV lytic cycle” below) is recorded as “can inhibit EBV lytic cycle”; the “concentration causing a marked reduction in the Rta levels” value (“concentration causing a marked reduction” for short) was 0.50 µM; the IC50 was 467 nM; the selectivity ratio at 24 h came out at 73. Also, in data set [1], the IC50 at 48 h was found to be 2.09 ± 0.13 µM. In data set [5], this molecule showed an IC50 at 24 h of 34.1 µM. In addition, the “cytotoxic activity compared to protoapigenone (in words)” value in data set [6] is “much weaker; also recorded: an order of magnitude lower cytotoxic effect”.

Regarding `CCCCOC1(c2cc(=O)c3c(O)cc(O)cc3o2)C=CC(=O)C=C1` [Compound 7], in data set [4], the “inhibition of EBV lytic cycle” value is given as “can inhibit EBV lytic cycle”; the “concentration causing a marked reduction” value is given as 0.25 µM; the midpoint of inhibition, the IC50, lay at 208 nM; the selectivity ratio at 24 h is 9.8. Also, in data set [1], the IC50 at 48 h is 0.25 ± 0.002 µM. For the same molecule, the IC50 at 24 h in data set [5] came out at 2.04 µM. Further, in data set [6], the “cytotoxic activity compared to protoapigenone (in words)” value was “similarly active as protoapigenone”.

`O=c1cc(C2(O)CCC(=NO)CC2)oc2cc(O)cc(O)c12` (stereo not shown) [Compound 27]: the IC50 at 48 h in data set [1] was greater than 100 µM.

Turning to `CCCCOC1(c2cc(=O)c3c(O)cc(O)cc3o2)CCC(=O)CC1` [Compound 14], the IC50 at 48 h in data set [1] was roughly 6.37 µM.

Regarding `CCCOC1(c2cc(=O)c3c(O)cc(O)cc3o2)CCC(=O)CC1` [Compound 12], the IC50 at 48 h in data set [1] was greater than 100 µM.

As for `CCCCOC1(c2cc(=O)c3c(O)cc(O)cc3o2)C=CC(=NO)CC1OC` (stereo not shown) [Compound 22], in data set [1], the IC50 at 48 h was greater than 100 µM.

Regarding `CCCCOC1(c2cc(=O)c3c(O)cc(O)cc3o2)C=CC(=NO)CC1OC` (stereo not shown) [Compound 25], the IC50 in data set [3] is 53.88 ± 0.35 µM.

Turning to `O=C1C=CC(O)(c2cc(=O)c3c(O)cc(O)cc3o2)C=C1` [Compound 2, protoapigenone], the “activity against EBV lytic cycle (in words)” value in data set [7] was “strong activity”. In data set [4], half-maximal inhibition (IC50) required 127 nM and the selectivity ratio at 24 h is 30.1. In addition, the IC50 at 48 h in data set [1] was 0.22 ± 0.003 µM. For the same molecule, the midpoint of inhibition in data set [5], the IC50 at 24 h, lay at 3.86 µM.

As for `C#CCOC1(c2cc(=O)c3c(O)cc(O)cc3o2)C=CC(=O)C=C1` [Compound 8, protoapigenone 1′-O-propargyl ether], in data set [4], the “inhibition of EBV lytic cycle” value is recorded as “can inhibit EBV lytic cycle”; the “concentration causing a marked reduction” value came to 0.50 µM; the IC50 was 285 nM; the selectivity ratio at 24 h was 17.3. Besides, the IC50 at 48 h in data set [1] came to 0.67 ± 0.03 µM. For the same molecule, the IC50 at 24 h in data set [5] amounted to 4.93 µM. For the same molecule, the “cytotoxic activity compared to protoapigenone (in words)” value in data set [6] is “similarly active as protoapigenone”.

`COC1CC(=NO)C=CC1(OC(C)C)c1cc(=O)c2c(O)cc(O)cc2o1` (stereo not shown) [Compound 24]: the IC50 in data set [3] is greater than 100 µM.

Take `C#CCOC1(c2cc(=O)c3c(O)cc(O)cc3o2)C=CC(=NO)CC1OC` (stereo not shown) [Compound 26]: the IC50 in data set [3] is greater than 100 µM.

For the molecule `CCOC1(c2cc(=O)c3c(O)cc(O)cc3o2)CCC(=O)CC1` [Compound 11], the IC50 at 48 h in data set [1] was greater than 100 µM.

For the molecule `COC1CC(=NO)C=CC1(OC(C)C)c1cc(=O)c2c(O)cc(O)cc2o1` (stereo not shown) [Compound 21], the IC50 at 48 h in data set [1] was greater than 100 µM.
